From US20250326988A1, “SELF-PRESERVED, MILD LIQUID LAUNDRY DETERGENT FORMULAS” (Henkel AG & Co. KGaA, priority 2024, published 2025)

System: Fungi
Assay: Micro challenge, fungi reduction
Type: cell-based
Details: for Estimated Regression Coefficients for 7 Day: Coefficient / Estimated Regression Coefficients for 14 Day: Coefficient / Estimated Regression Coefficients for 21 Day: Coefficient / Estimated Regression Coefficients for 28 Day: Coefficient: Minitab regression of fungi log reductions; for efficacy of ingredient for log reduction as indicated by estimated regression coefficients: ethanol at day 7, sodium chloride afterwards
Protocol: Micro challenges were performed on Formulations 61J-L, 62A-M, […] and […] prepared in Example 1 for log reduction rates of bacteria and fungi. Bacteria were double challenged (inoculated about 1E08 to 1E09 CFU/g) and Fungi was single challenged (inoculated about 1E8 to 5E8). A. brasillienis (mold), S. aureus, E. coli, P. gergoviae/[…] mixture, P. aeruginosa, C. albicans (yeast), H. venusta were tested. Pass criteria for bacterium was greater than 3 log reduction on day 7 and 4 logs on day 28. Pass criteria for fungi was greater than 1 log reduction at 14 days with no growth observed afterwards.

Structure (SMILES)	Estimated Regression Coefficients for 7 Day: Coefficient	Estimated Regression Coefficients for 14 Day: Coefficient	Estimated Regression Coefficients for 21 Day: Coefficient	Estimated Regression Coefficients for 28 Day: Coefficient	efficacy of ingredient for log reduction as indicated by estimated regression coefficients
CCO [Ethanol]	2.24	3.08	3.22	3.09	most effective log reduction
CC(C(=O)O)N(CC(=O)O)CC(=O)O (centres unmarked) [MGDA, methylglycinediacetic acid]	1.16	1.42	1.43	1.42	–
[Cl-].[Na+] [NaCl, sodium chloride]	1.36	2.14	3.13	3.42	comparable to ethanol's efficacy
